Experimental data reported in patent US10336735B2, “Small molecule inhibitors of fibrosis” (THE CALIFORNIA INSTITUTE FOR BIOMEDICAL RESEARCH, priority 2014, dated 2019).

tested on: primary human lung fibroblasts and primary rodent HSCs; assay: High content imaging assay (α-SMA staining, cell morphology) of fibroblast to myofibroblast transdifferentiation, confirmed by Western blot and RT-PCR; conditions: Homo sapiens, Fibroblast; imaging and western based activity
Text: High content imaging assays have been established, using primary human lung fibroblasts and primary rodent HSCs, that enable the identification of small molecules that either inhibit myofibroblast formation/activation or induce the reversion of activated myofibroblasts to a quiescent fibroblast state. Conditions, involving serum starvation and subsequent TGF-β treatment, have been identified that facilitate robust in vitro transdifferentiation in a miniaturized (384 well plate) format that is amenable to high throughput small molecule screening. The inhibition assay is based on α-SMA immunofluorescent staining and cell morphology changes associated with fibroblast to myofibroblast transdifferentiation, Using the selective ALK-5 TGF-β1 receptor inhibitor ([…]) as a positive control, the inhibition assay has been used to initiate a screen of a collection of ˜100,000 small molecules that consists of bioactive small molecules and a diversity set that has been assembled based on 2D and 3D structural diversity and inherent “drug-likeness” properties. Preliminary screening led to the identification of multiple previously identified anti-fibrotic molecules.
A high content imaging assay, based on α-SMA staining and cell morphological changes associated with fibroblast to myofibroblast transdifferentiation, was established using primary human lung fibroblasts and primary rodent HSCs. Conditions, involving serum starvation and subsequent TGF-β treatment, were identified that facilitate robust in vitro transdifferentiation in a miniaturized (384 well plate) format that is amenable to high throughput small molecule screening. A selective ALK-5 TGF-β1 receptor inhibitor (SB-431542) was used as a positive control. […] This assay was used to evaluate compounds of Formula (I), (Ia), (II), (IIa), (III), (IIIa), (IV), (IVa), (IVb), (V), (Va), (VI), (VIa), (VIb), (VIc), (VII), (VIIa), (VIII), (VIIIa), (IX), (IXa), (X), or (Xa) generated from medicinal chemistry efforts.
The activity of Itraconazole and compounds of Formula (I), (Ia), (II), (IIa), (III), (IIIa), (IV), (IVa), (IVb), (V), (Va), (VI), (VIa), (VIb), (VIc), (VII), (VIIa), (VIII), (VIIIa), (IX), (IXa), (X), or (Xa) was confirmed by analyzing changes in gene expression of multiple genes associated with fibroblast to myofibroblast transdifferentiation using biochemical methods (i.e., Western blot and RT-PCR). These 4-day assays were used to evaluate sets of 6 compounds at a time in 4-point dose response fashion.
The EC50 for (imaging and western based) activity is graded as: +++=<500 nM; ++=500 nM to 5 μM; +=5 to 30 μM); −=>30 μM; NT=Not Tested.

| SMILES | EC50 [µM] |
| --- | --- |
| CCC(C)n1ncn(-c2ccc(N3CCN(c4ccc(OC[C@@H]5CO[C@](Cc6ccnnc6)(c6cccc(Cl)c6)O5)cc4)CC3)cc2)c1=O (stereo partly shown) [Compound 104] | 0.5 to 5 |
| CCC(C)n1ncn(-c2ccc(N3CCN(c4ccc(OC[C@@H]5CO[C@@](Cn6nccn6)(c6ccc(C#N)cc6Cl)O5)cc4)CC3)cc2)c1=O (stereo partly shown) [Compound 26] | 5 to 30 |
| CCC(C)n1ncn(-c2ccc(N3CCN(c4ccc(OC[C@@H]5CO[C@@](Cn6cccn6)(c6ccc(Cl)cc6)O5)cc4)CC3)cc2)c1=O (stereo partly shown) [Compound 81] | < 0.5 |
| CCC(CC)n1ncn(-c2ccc(N3CCN(c4ccc(OC[C@H]5CO[C@](Cn6nccn6)(c6ccccc6)O5)cc4)CC3)cc2)c1=O [Compound 160] | < 0.5 |
| CCC(CC)n1ncn(-c2ccc(N3CCN(c4ccc(OC[C@@H]5CO[C@@](Cn6cccn6)(c6ccccc6)O5)cc4)CC3)cc2)c1=O [Compound 166] | < 0.5 |
| CC[C@H](C)n1ncn(-c2ccc(N3CCN(c4ccc(OC[C@H]5CO[C@](Cn6cccn6)(c6ccccc6)O5)cc4)CC3)cc2)c1=O [Compound 170] | < 0.5 |
| CCC(C)n1ncn(-c2ccc(N3CCN(c4ccc(OC[C@@H]5CO[C@](Cc6ccnnc6)(c6cccc(C)c6)O5)cc4)CC3)cc2)c1=O (stereo partly shown) [Compound 117] | 0.5 to 5 |
| CCC(C)n1ncn(-c2ccc(N3CCN(c4ccc(OC[C@@H]5CO[C@@](Cn6cccn6)(c6cccc(OC)c6)O5)cc4)CC3)cc2)c1=O (stereo partly shown) [Compound 86] | < 0.5 |
| CC[C@@H](C)n1ncn(-c2ccc(N3CCN(c4ccc(OC[C@@H]5CO[C@@](Cn6nccn6)(c6ccccc6)O5)cc4)CC3)cc2)c1=O [Compound 179, 4-(4-(4-(4-(((2S,4R)-2-((2H-1,2,3-triazol-2-yl)methyl)-2-phenyl-1,3-dioxolan-4-yl)methoxy)phenyl)piperazin-1-yl)phenyl)-(R)-1-sec-butyl-1H-1,2,4-triazol-5(4H)-one] | < 0.5 |
| CCC(C)n1ncn(-c2ccc(N3CCN(c4ccc(OC[C@@H]5CO[C@](Cc6ccnnc6)(c6ccccc6C)O5)cc4)CC3)cc2)c1=O (stereo partly shown) [Compound 116] | < 0.5 |
| CCC(C)n1ncn(-c2ccc(N3CCN(c4ccc(OC[C@@H]5CO[C@@](Cn6nccn6)(c6ccc(Cl)cc6Cl)O5)cc4)CC3)cc2)c1=S (stereo partly shown) [Compound 75] | > 30 |
| O=c1n(-c2ccc(N3CCN(c4ccc(OC[C@@H]5CO[C@@](Cn6nccn6)(c6ccccc6)O5)cc4)CC3)cc2)cnn1CC1CCNCC1 [Compound 15] | 5 to 30 |
| CC[C@H](C)n1ncn(-c2ccc(N3CCN(c4ccc(OC[C@@H]5CO[C@@](Cn6cccn6)(c6ccccc6)O5)cc4)CC3)cc2)c1=O [Compound 168] | < 0.5 |
| C#Cc1ccc([C@]2(Cn3cncn3)OC[C@@H](COc3ccc(N4CCN(c5ccc(-n6cnn(CCC7(C)N=N7)c6=O)cc5)CC4)cc3)O2)cc1 [Compound 192] | 0.5 to 5 |
| CCC(C)n1ncn(-c2ccc(N3CCN(c4ccc(OC[C@@H]5CO[C@@](Cc6ccnnc6)(c6ccccc6Cl)O5)cc4)CC3)cc2)c1=O (stereo partly shown) [Compound 125] | < 0.5 |
| CCC(C)n1ncn(-c2ccc(N3CCN(c4cc(C)c(OC[C@@H]5CO[C@@](Cn6nccn6)(c6ccccc6)O5)c(C)c4)CC3)cc2)c1=O (stereo partly shown) [Compound 61] | 5 to 30 |
| CCC(C)n1ncn(-c2ccc(N3CCN(c4ccc(OC[C@@H]5CO[C@](Cc6ccnnc6)(c6cccc(C(F)(F)F)c6)O5)cc4)CC3)cc2)c1=O (stereo partly shown) [Compound 113] | 0.5 to 5 |
| CCC(C)n1ncn(-c2ccc(N3CCN(c4ccc(OC[C@@H]5CO[C@@](Cn6nccn6)(c6ccc(CN)cc6)O5)cc4)CC3)cc2)c1=O (stereo partly shown) [Compound 37] | 0.5 to 5 |
| CCC(C)n1ncn(-c2ccc(N3CCN(c4ccc(OC[C@@H]5CO[C@@](Cn6cccn6)(c6ccccc6Cl)O5)cc4)CC3)cc2)c1=O (stereo partly shown) [Compound 83] | < 0.5 |
| CCC(C)n1ncn(-c2ccc(N3CCN(c4ccc(OC[C@@H]5CO[C@@](Cn6nccn6)(c6ccccc6)O5)cc4)CC3C)cc2)c1=O (stereo partly shown) [Compound 73] | 5 to 30 |
| O=c1n(-c2ccc(N3CCN(c4ccc(OC[C@@H]5CO[C@@](Cn6nccn6)(c6ccc(Cl)cc6Cl)O5)cc4F)CC3)cc2)cnn1CC1CCCC1 [Compound 154] | < 0.5 |

| SMILES | EC50 [µM] |
| --- | --- |
| CCC(C)n1ncn(-c2ccc(N3CCN(c4ccc(OC[C@@H]5CO[C@@](Cn6nccn6)(c6ccccc6)O5)c(C(F)(F)F)c4)CC3)cc2)c1=O (stereo partly shown) [Compound 59] | 5 to 30 |
| CCC(C)n1ncn(-c2ccc(N3CCN(c4ccc(OC[C@@H]5CO[C@@](Cn6nccn6)(c6cccc(Cl)c6Cl)O5)cc4)CC3)cc2)c1=O (stereo partly shown) [Compound 29] | < 0.5 |
| CCC(C)n1ncn(-c2ccc(N3CCN(c4ccc(OC[C@H]5OC[C@](Cn6cncn6)(c6ccc(F)cc6F)O5)cc4)CC3)cc2)c1=O (mixture of isomers) [compound 200] | < 0.5 |
| Cc1cc(C#N)ccc1[C@]1(Cn2nccn2)OC[C@@H](COc2ccc(N3CCN(c4ccc(-n5cnn(CC6CCCC6)c5=O)cc4)CC3)cc2)O1 [Compound 25] | 0.5 to 5 |
| CC1(CCn2ncn(-c3ccc(N4CCN(c5ccc(OC[C@@H]6CO[C@@](Cn7cncn7)(c7ccc(Br)cc7)O6)cc5)CC4)cc3)c2=O)N=N1 [Compound 151] | 0.5 to 5 |
| CCC(CC)n1ncn(-c2ccc(N3CCN(c4ccc(OC[C@H]5CO[C@](Cn6nccn6)(c6ccccc6)C5)cc4C#N)CC3)cc2)c1=O [Compound 144] | > 30 |
| CCC(C)n1ncn(-c2ccc(N3CCN(c4ccc(OC[C@@H]5CO[C@@](Cn6nccn6)(c6ccccc6)O5)cc4C#N)CC3)cc2)c1=O (stereo partly shown) [Compound 66] | < 0.5 |
| CCC(C)n1ncn(-c2ccc(N3CCN(c4ccc(OC[C@@H]5CO[C@](Cc6ccnnc6)(c6ccc(C(N)=O)cc6)O5)cc4)CC3)cc2)c1=O (stereo partly drawn) [Compound 121, 4-((2S,4R)-4-((4-(4-(4-(1-sec-butyl-5-oxo-1H-1,2,4-triazol-4(5H)-yl)phenyl)piperazin-1-yl)phenoxy)methyl)-2-(pyridazin-4-ylmethyl)-1,3-dioxolan-2-yl)benzamide] | 5 to 30 |
| N#Cc1cc(OC[C@H]2CO[C@](Cn3nccn3)(c3ccccc3)C2)ccc1N1CCN(c2ccc(-n3cnn(CC4CCCC4)c3=O)cc2)CC1 [Compound 146] | > 30 |
| CCC(CC)n1ncn(-c2ccc(N3CCN(c4ccc(OC[C@H]5CO[C@](Cn6cccn6)(c6ccc(C#N)cc6C)O5)cc4)CC3)cc2)c1=O [Compound 177] | 0.5 to 5 |
| CCC(C)n1ncn(-c2ccc(N3CCN(c4ccc(OC[C@@H]5CO[C@@](Cn6ncc(Cl)c(Cl)c6=O)(c6ccc(Cl)cc6Cl)O5)cc4)CC3)cc2)c1=O (stereo partly shown) [Compound 42] | 5 to 30 |
| CC(C)N1CCN(c2ccc(OC[C@@H]3CO[C@@](Cn4nccn4)(c4ccc(Cl)cc4Cl)O3)cc2)CC1 [Compound 5] | 5 to 30 |
| CCC(C)n1ncn(-c2ccc(N3CCN(c4ccc(OC[C@@H]5CO[C@](Cc6ccnnc6)(c6ccc(OC(F)(F)F)cc6)O5)cc4)CC3)cc2)c1=O (stereo partly shown) [Compound 115] | 0.5 to 5 |
| CCC(C)n1ncn(-c2ccc(N3CCN(c4ccc(OC[C@@H]5CO[C@@](Cc6ccnnc6)(c6ccc(OC)cc6)O5)cc4)CC3)cc2)c1=O (stereo partly shown) [Compound 129] | < 0.5 |
| CCC(C)n1ncn(-c2ccc(N3CCN(c4ccccc4OC[C@@H]4CO[C@@](Cn5nccn5)(c5ccc(Cl)cc5Cl)O4)CC3)cc2)c1=O (stereo partly shown) [Compound 79] | > 30 |
| CCC(CC)n1ncn(-c2ccc(N3CCN(c4ccc(OC[C@@H]5CO[C@@](Cn6nccn6)(c6ccccc6)O5)cc4C#N)CC3)cc2)c1=O [Compound 155] | < 0.5 |
| CCC(C)n1ncn(-c2ccc(N3CCN(c4ccc(OC[C@@H]5CO[C@](Cc6ccnnc6)(c6ccc(OC)cc6)O5)cc4)CC3)cc2)c1=O (stereo partly shown) [Compound 109] | 0.5 to 5 |
| CCC(C)n1ncn(-c2ccc(N3CCN(c4ccc(OC[C@@H]5CO[C@](Cc6ccnnc6)(c6ccccc6Cl)O5)cc4)CC3)cc2)c1=O (stereo partly shown) [Compound 105] | < 0.5 |
| C#CCCCn1ncn(-c2ccc(N3CCN(c4ccc(OC[C@@H]5CO[C@@](Cn6cncn6)(c6ccc(N=[N+]=[N-])cc6)O5)cc4)CC3)cc2)c1=O [Compound 191] | 0.5 to 5 |
| CCC(C)n1ncn(-c2ccc(N3CCN(c4cc(F)c(OC[C@@H]5CO[C@@](Cn6nccn6)(c6ccccc6)O5)c(F)c4)CC3)cc2)c1=O (stereo partly shown) [Compound 62] | 5 to 30 |
| CC(=O)N1CCN(c2ccc(OC[C@@H]3CO[C@@](Cn4nccn4)(c4ccc(Cl)cc4Cl)O3)cc2)CC1 [Compound 4] | > 30 |

same assay, conditions: imaging and western based activity

| SMILES | EC50 [µM] |
| --- | --- |
| CCC(C)n1ncn(-c2ccc(N3CCN(c4ccc(OC[C@@H]5CO[C@](Cn6nccn6)(c6ccccc6)O5)cc4)CC3)cc2)c1=O (stereo partly shown) [Compound 187] | 5 to 30 |
